Consider four compounds from US20140141974A1, “Fungicidal phenylalkyl-substituted 2-[2-chloro-4-(4-chloro-phenoxy)-phenyl]-1-[1,2,4]triazol-1-yl-ethanol compounds” (BASF SE, priority 2011, published 2014).

The test system of one experiment is Phakopsora pachyrhizi. Description: Protective control of soy bean rust on soy beans (Use Example 4, greenhouse comparative test). The conditions noted are these: soy bean seedlings, inoculated 1 day after spraying, untreated control 80. It is filed as in vivo. As to the method:
The spray solutions were prepared in several steps:
The stock solutions were prepared: a mixture of acetone and/or dimethylsulfoxide and the wetting agent/emulsifier Wettol, which is based on ethoxylated alkylphenoles, in a relation (volume) solvent-emulsifier of 99 to 1 was added to 25 mg of the compound to give a total of 5 ml. Water was then added to total volume of 100 ml.
This stock solution was diluted with the described solvent-emulsifier-water mixture to the given concentration.
Leaves of pot-grown soy bean seedlings were sprayed to run-off with an aqueous suspension, containing the concentration of active ingredient or their mixture as described below. The plants were allowed to air-dry. The trial plants were cultivated for 1 day in a greenhouse chamber at 23-27° C. and a relative humidity between 60 and 80%. Then the plants were inoculated with spores of Phakopsora pachyrhizi. To ensure the success the artificial inoculation, the plants were transferred to a humid chamber with a relative humidity of about 95% and 20 to 24° C. for 24 h. The trial plants were cultivated for fourteen days in a greenhouse chamber at 23-27° C. and a relative humidity between 60 and 80%. The extent of fungal attack on the leaves was visually assessed as % diseased leaf area.

In experiment [1] the test system is Puccinia recondita (Puccrt K4). Description: Curative control of brown rust on wheat (Use Example 5, greenhouse comparative test). Format: in vivo. The conditions noted are these: wheat seedlings, sprayed after inoculation, untreated control 90. The method, then:
The spray solutions were prepared in several steps: The stock solutions were prepared: a mixture of acetone and/or dimethylsulfoxide and the wetting agent/emulsifier Wettol, which is based on ethoxylated alkylphenoles, in a relation (volume) solvent-emulsifier of 99 to 1 was added to 25 mg of the compound to give a total of 5 ml. Water was then added to total volume of 100 ml. This stock solution was diluted with the described solvent-emulsifier-water mixture to the given concentration. The first two developed leaves of pot-grown wheat seedling were dusted with spores of Puccinia recondita. To ensure the success the artificial inoculation, the plants were transferred to a humid chamber without light and a relative humidity of 95 to 99% and 20 to 24° C. for 24 h. The next day the plants were cultivated for 3 days in a greenhouse chamber at 20-24° C. and a relative humidity between 65 and 70%. Then the plants were sprayed to run-off with an aqueous suspension, containing the concentration of active ingredient or their mixture as described below. The plants were allowed to air-dry. Then the trial plants were cultivated for 8 days in a greenhouse chamber at 20-24° C. and a relative humidity between 65 and 70%. The extent of fungal attack on the leaves was visually assessed as % diseased leaf area.

`OC(Cn1cncn1)(c1ccccc1)c1ccc(Oc2ccc(Cl)cc2)cc1Cl` (stereo not drawn) [Compound I-1]: in the experiment on Phakopsora pachyrhizi, the “Disease (%) at 150 ppm” value stood at 1%.

In the case of `OC(Cc1ccccc1)(Cn1cncn1)c1ccc(Oc2ccc(Cl)cc2)cc1Cl` (stereo not drawn) [Compound I-2, 2-[2-chloro-4-(4-chloro-phenoxy)-phenyl]-1-phenyl-3-[1,2,4]triazol-1-yl-propan-2-ol], the “Disease (%) at 63 ppm” value in experiment [1] is listed as 35%. Also, in the experiment with Phakopsora pachyrhizi, the “Disease (%) at 150 ppm” value is reported as 3%.

With `OC(C#Cc1ccccc1)(Cn1cncn1)c1ccc(Oc2ccc(Cl)cc2)cc1Cl` (stereo not drawn) [Compound I-4], in experiment [1], the “Disease (%) at 63 ppm” value was determined as 20%.

As to `OC(/C=C/c1ccccc1)(Cn1cncn1)c1ccc(Oc2ccc(Cl)cc2)cc1Cl` (stereo not drawn) [Compound V20, reference compound], the “Disease (%) at 63 ppm” value in experiment [1] is 55%. In addition, in the experiment on Phakopsora pachyrhizi, the “Disease (%) at 150 ppm” value is listed as 50%.
